Results: article PMC6501426 (Clinical Epigenetics, 2019)

Assays:
[1] = molecular target: T1, human C-terminal DNMT3A (Homo sapiens, UniProt Q9Y6K1); assay: DNMT3A restriction-based fluorescence assay; assay type: biochemical; conditions: fluorescent assay; C-terminal catalytic domain; read-out: EC50 ± SD, hDNMT3A
T1 construct: the C-terminal catalytic domain of human DNMT3A (hDNMT3A)
Protocol: DNMT3A enzyme inhibition was adapted from the restriction-based fluorescence assay protocol described in Ceccaldi et al.. Briefly, it is performed in a 384-well microplate in a total volume of 50 μL. An oligonucleotide labeled at the 5′ end with biotin is hybridized to his complementary strand labeled at the 3′ end with 6-carboxyfluorescein. The DNA duplex thus formed contains only one single CpG site overlapping with a restriction site of a methylation sensitive restriction enzyme. The duplex is transferred in the wells coated with avidin. Thus, the duplex is fixed to the plate. The methylation reaction is performed by adding human C-terminal DNMT3A at the final concentration of 4 ng/μL in a total volume of 50 μL in the presence of the chemical compound to be tested at the desired concentration and the cofactor SAM at the final concentration of 20 μM. After incubation (1 h at 37 °C), the plate is washed and the methylation sensitive restriction enzyme HpyCH4IV is added. After 1-h incubation at 37 °C, the plate is washed and the fluorescence measured with a PerkinElmer Envision Multilabel Plate Reader (PerkinElmer, Villebon-sur-Yvette, France). The data are expressed as a percentage of inhibition vs. log concentration (M). Data are normalized referring to the “restriction control” (wells coated with labeled duplex not treated nor exposed to DNMT3A, but only cleaved by HpyCH4IV) as the maximum of inhibition (100%) and to the “DMSO control” (wells coated with labeled duplex but treated just with 0.1% DMSO exposed to DNMT3A and then to HpyCH4IV) as the minimum of inhibition (0%; total methylation).

[2] = molecular target: T2, human DNMT1 (Homo sapiens, UniProt P26358); assay: DNMT1 assay (radiolabeled SAM, Flashplate); assay type: biochemical; conditions: radioactivity assay; at least two independent experiments; read-out: EC50 ± SD, hDNMT1
T2 construct: His; made in house
Protocol: His-DNMT1 (182 kDa, human) was cloned, expressed, and purified as described by Lee et al.. The DNMT1 assay was performed according to Gros et al.. Briefly, the DNMT1 enzymatic assay is based on the use of radiolabeled SAM, and the methylation occurs in homogeneous phase in 384-well microplates. The reaction is performed with DNMT1 at the final concentration of 90 nM in a total volume of 10 μL including also the chemical compound to be tested at the desired concentration, 1.25 μM of SAM//[methyl-^3H] SAM (3TBq/mmol) mix in a ratio of 3:1 and 0.3 μM of biotinylated DNA duplex. DNMT1, as “maintenance” methyltransferase, requires hemimethylated DNA for the reaction. After 2 h incubation at 37 °C, 8 μL of the reaction’s solution is transferred into a streptavidin 96-well scintillant coated Flashplate^TM containing 190 μL of […] in 50 mM Tris-HCl (pH 7.4). The Flashplate^TM is then agitated at room temperature for 1 h and washed. The plate is read with TopCount (PerkinElmer, Villebon-sur-Yvette, France). The greater the DNMT1 inhibition, the lower will be the scintillation signal correlated to the incorporation of the tritiated methyl groups. In this assay, the negative and positive controls were defined as wells without enzyme and wells without any compound but just DMSO, respectively.

[3] = system: MMP2 mRNA in HCT116 cells; assay: qPCR of MMP2 in HCT116; assay type: cell-based, human; conditions: MC3353 0.1 and 1 μM 24 h; 5-AZA, DAC 5 days, also at 0.1 to 1 μM
From the text: (§1) RNAs were extracted by ReliaPrep™ RNA Tissue Miniprep (Promega, Madison, WI, USA) and reverse transcribed with PrimeScript RT Master Mix (Takara, Kusatsu, Shiga, Japan). cDNAs were amplified by a qPCR reaction using GoTaq qPCR Master Mix (Promega) and analyzed with the oligonucleotide pairs specific for the target genes. Relative amounts, determined with the 2^(−ΔCt) method, were normalized with respect to the human housekeeping gene L32. The primers used are as follows: L32 (forward: 5′-[…]-3′, reverse: 5′-[…]-3′), E-cadherin (forward: 5′-[…]-3′, reverse: 5′-[…]-3′), and MMP2 (forward: 5′-[…]-3′, reverse: 5′-[…]-3′).
(§2) Prompted by these findings, we investigated the ability of MC3353 to modulate EMT pathway, using 5-AZA and DAC as reference drugs. […] The levels of mRNA transcripts of E-cadherin and matrix metalloproteinase-2 (MMP2) were determined. E-cadherin is involved in the maintenance of the epithelial identity and in the control of tumor invasiveness, whereas MMP2, through degradation of type IV collagen, the most abundant component of the basement membrane, controls an essential step for metastatic progression of most cancers as well as for induction of angiogenesis.

[4] = system: double DNMT knockout (DKO) HCT116 cells; assay: MTT proliferation assay DKO HCT116; assay type: cell-based, human; conditions: 24 and 48 h; MC3353 at 0.5 μM after 48 h; DAC, 5-AZA up to highest dose
Protocol: DKO HCT116 (ATCC, VA, USA) cells were propagated in Dulbecco’s modified Eagle medium (DMEM) (Euroclone, Milan, Italy) with 10% fetal bovine serum (FBS; Euroclone, Milan, Italy), 2 mM L-glutamine (Euroclone, Milan, Italy) and antibiotics (100 U/mL penicillin, 100 µg/mL streptomycin) (Euroclone, Milan, Italy).
(§3) The MTT [3-(4,5-dimethylthiazol-2-yl)-2,5-diphenyltetrazolium bromide] (Sigma-Aldrich, Milan, Italy) assay was used to determine the proliferation of HCT116 clone and DKO HCT116 cells after treatment with MC3353, 5-AZA, and DAC. 5 × 10^4 cells/well for both cell lines were plated in 24-well plate and treated, in duplicate, with compounds at several concentrations for 24 and 48 h of induction. After treatments, MTT solution was added for 3 h at 0.5 mg/mL, the purple formazan crystals were dissolved in DMSO (Sigma-Aldrich, Milan, Italy), and the absorbance was read at a wavelength of 570 nm with reader TECAN M-200.

[5] = system: MMP2 mRNA in PC-3 cells; assay: qPCR of MMP2 in PC-3; assay type: cell-based, human; conditions: MC3353 0.1 and 1 μM 24 h; 5-AZA, DAC 5 days, also at 0.1 to 1 μM
From the text: as §1, §2

[6] = system: HCT116 cells; assay: MTT proliferation assay HCT116; assay type: cell-based, human; conditions: 24 and 48 h; MC3353 from 0.5 μM after 48 h; DAC at 10 μM
Protocol: as §3

[7] = system: E-cadherin mRNA in PC-3 cells; assay: qPCR of E-cadherin in PC-3; assay type: cell-based, human; conditions: MC3353 24 h; 5-AZA, DAC 5 days, effect from 1 to 5 μM
From the text: as §1, §2

[8] = system: E-cadherin mRNA in HCT116 cells; assay: qPCR of E-cadherin in HCT116; assay type: cell-based, human; conditions: MC3353 0.1 μM 24 h; 5-AZA, DAC every 2 days for 5 days at 0.1, 1, 5 μM
From the text: as §1, §2

[9] = system: methylated UCHL1 promoter EGFP reporter in HCT116 cells; assay: UCHL1 promoter demethylation assay (EGFP expression, FACS) in HCT116; assay type: cell-based, human; conditions: 5 μM, 5 days, HCT116 with methylated pUCHL1 vector
Protocol: Human colon cancer HCT116 (ATCC, VA, USA) cells were propagated in McCoy’s 5A medium (Euroclone, Milan, Italy) with 10% fetal bovine serum (FBS; Euroclone), 2 mM L-glutamine (Euroclone), and antibiotics (100 U/mL penicillin, 100 µg/mL streptomycin) (Euroclone). For the treatments with MC3353, 5-AZA, and DAC as positive controls, 2 × 10^4 cells were seeded in 6-well plates in triplicate. Cells were treated every 2 days, and the medium was changed. On day 5, cells were observed under a fluorescent microscope. The nuclei were counterstained with DAPI (10 μg/mL, Invitrogen, Tournai, Belgium).
Fluorescence of EGFP and DAPI in living cells was analyzed by Cytation™ 5 Cell Imaging Multi-Mode Reader (BioTeK, Milan, Italy).
Before the transfection, the pUMLIEP vector was linearized by with ClaI restriction enzyme (New England Biolabs, Milan, Italy) and then it was methylated by SssI-methylase (New England Biolabs, Milan, Italy) for 60 min. The methylated vector was transfected into HCT116 cells using Lipofectamine™2000 (Invitrogen, Monza, Italy) and Opti-MEM® (Gibco, Monza, Italy), and stably introduced clones were selected with puromycin (1.0 μg/mL, Sigma-Aldrich, Milan, Italy). The detailed protocol for the generation of cells highly responsive to DNA demethylating agents is described in [27].
Next, the demethylating activity of MC3353 was evaluated in cells transfected with luciferase and EGFP reporter genes driven by the UCHL1 promoter. The UCHL1 promoter is silenced by methylation in human colon cancer and can be demethylated by specific treatments, inducing expression of Metridia luciferase and EGFP reporter genes. In particular, the pUCHL1 vector, after methylation, was transfected into HCT116 colon cancer cells, and the stable clone was obtained by puromycin selection. Afterwards, cells were treated with 5-AZA (5 μM), with DAC (5 μM), or with MC3353 (0.1 μM) for 5 days. Such a low MC3353 dose was used because of its cytotoxicity at higher concentrations in long treatments.

T1 sequence (Q9Y6K1 634-912 limits assumed): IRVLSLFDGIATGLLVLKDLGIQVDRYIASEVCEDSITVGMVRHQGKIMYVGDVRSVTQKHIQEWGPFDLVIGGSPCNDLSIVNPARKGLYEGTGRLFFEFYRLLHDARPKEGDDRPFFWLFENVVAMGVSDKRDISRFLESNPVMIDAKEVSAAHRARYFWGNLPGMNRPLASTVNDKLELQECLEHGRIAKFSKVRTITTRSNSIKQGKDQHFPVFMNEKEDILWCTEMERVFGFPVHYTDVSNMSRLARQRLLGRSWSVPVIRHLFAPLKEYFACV
T2 sequence (P26358 whole entry): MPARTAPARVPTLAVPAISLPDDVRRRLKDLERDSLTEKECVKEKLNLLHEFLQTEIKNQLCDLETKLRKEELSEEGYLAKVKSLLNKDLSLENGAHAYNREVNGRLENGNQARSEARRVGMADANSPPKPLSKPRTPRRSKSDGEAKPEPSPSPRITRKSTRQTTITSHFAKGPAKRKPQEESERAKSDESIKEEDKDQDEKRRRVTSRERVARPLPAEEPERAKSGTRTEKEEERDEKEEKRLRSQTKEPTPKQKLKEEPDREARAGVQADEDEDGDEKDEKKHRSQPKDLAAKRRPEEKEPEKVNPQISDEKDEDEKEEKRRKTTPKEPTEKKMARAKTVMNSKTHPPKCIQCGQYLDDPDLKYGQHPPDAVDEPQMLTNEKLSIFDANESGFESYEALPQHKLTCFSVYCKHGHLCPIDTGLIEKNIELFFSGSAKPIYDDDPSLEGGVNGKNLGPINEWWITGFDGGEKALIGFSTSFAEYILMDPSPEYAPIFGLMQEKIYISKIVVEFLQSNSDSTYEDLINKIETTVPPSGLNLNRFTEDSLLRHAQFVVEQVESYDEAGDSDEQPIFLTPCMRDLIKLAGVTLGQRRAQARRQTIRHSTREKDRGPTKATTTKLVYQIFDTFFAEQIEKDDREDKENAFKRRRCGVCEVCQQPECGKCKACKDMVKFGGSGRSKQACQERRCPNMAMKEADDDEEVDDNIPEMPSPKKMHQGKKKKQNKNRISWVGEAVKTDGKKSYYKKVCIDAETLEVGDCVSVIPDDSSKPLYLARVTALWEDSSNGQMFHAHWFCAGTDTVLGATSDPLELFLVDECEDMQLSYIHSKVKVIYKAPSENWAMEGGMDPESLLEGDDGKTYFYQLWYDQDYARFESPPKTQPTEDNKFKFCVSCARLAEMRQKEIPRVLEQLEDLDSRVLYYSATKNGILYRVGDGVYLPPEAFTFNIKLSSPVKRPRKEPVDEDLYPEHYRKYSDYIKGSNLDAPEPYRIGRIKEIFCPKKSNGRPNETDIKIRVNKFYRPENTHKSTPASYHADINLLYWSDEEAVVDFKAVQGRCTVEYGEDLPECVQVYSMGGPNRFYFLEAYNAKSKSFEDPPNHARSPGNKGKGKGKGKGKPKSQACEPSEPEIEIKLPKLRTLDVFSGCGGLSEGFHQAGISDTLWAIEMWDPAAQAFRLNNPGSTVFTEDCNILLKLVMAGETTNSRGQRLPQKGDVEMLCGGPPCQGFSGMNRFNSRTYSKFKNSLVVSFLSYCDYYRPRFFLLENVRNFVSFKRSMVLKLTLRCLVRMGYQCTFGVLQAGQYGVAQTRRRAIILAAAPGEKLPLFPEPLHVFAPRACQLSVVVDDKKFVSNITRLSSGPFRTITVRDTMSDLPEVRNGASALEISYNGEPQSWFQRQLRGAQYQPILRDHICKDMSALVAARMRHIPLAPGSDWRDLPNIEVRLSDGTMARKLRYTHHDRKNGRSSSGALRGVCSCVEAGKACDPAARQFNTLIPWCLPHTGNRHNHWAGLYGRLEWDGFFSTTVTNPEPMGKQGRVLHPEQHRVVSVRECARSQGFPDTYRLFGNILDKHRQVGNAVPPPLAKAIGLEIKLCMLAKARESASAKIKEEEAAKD

| SMILES | EC50 [1] [µM] | EC50 [2] [µM] | MMP2 mRNA expression, HCT116 [3] | effect on DKO HCT116 proliferation (MTT) [4] | MMP2 mRNA expression, PC-3 [5] | effect on HCT116 proliferation (MTT) [6] | E-cadherin mRNA expression, PC-3 [7] | E-cadherin mRNA expression, HCT116 [8] | EGFP gene expression induction (FACS) [9] [%] |
| --- | --- | --- | --- | --- | --- | --- | --- | --- | --- |
| O=C(O)C(Cc1c[nH]c2ccccc12)N1C(=O)c2ccccc2C1=O (stereo not drawn) [RG-108, reference compound] | > 500 | 390 ± 50 | – | – | – | – | – | – | – |
| Nc1ncn([C@@H]2O[C@H](CO)[C@@H](O)[C@H]2O)c(=O)n1 [Compound 5-AZA, 5-azacytidine] | – | – | increased MMP2 level | weak effect | increased MMP2 level | negligible effect | able to induce E-cadherin expression | able to induce E-cadherin expression | 38.5 |
